Measured values taken from patent publication US20210130308A1, “MODULATORS OF EUKARYOTIC INITIATION FACTOR 2” (Denali Therapeutics Inc., priority 2018, published 2021).

system: ATF4 translation (ISR pathway activation); assay: ATF4 Nano Luciferase reporter integrated stress response (ISR) assay in H4 ATF4-NLuc (clone 17) cells; format: cell-based, human; conditions: H4 ATF4-NLuc (clone 17) cells; compounds 30 minutes at 37 degree Celsius, then 50 um sodium arsenite for 6 additional hours; luminescence readout; read-out: IC50
Excerpt: Cellular stress leads to activation of the integrated stress response pathway through one of four eukaryotic initiation factor 2α kinases and halts global translation, while allowing for the translation of select transcripts like ATF4 (activating transcription factor 4) that are important for the response to cellular stress. During normal conditions, small open reading frames (ORFs) in the 5′ UTR of ATF4 occupy the ribosome and prevent translation of the coding sequence of ATF4. During stress conditions however, the ribosome scans past these upstream ORFs and preferentially begins translation at the coding sequence of ATF4. In this way, the translation, and thus protein level of ATF4 is a readout of ISR pathway activation. Thus, a fusion of the uORFs and the beginning of the coding sequence of ATF to a common cellular reporter like nano-luciferase allows for a sensitive and high-throughput readout of ISR pathway activity.
Compounds as provided herein were tested in the following assay. The ATF4 Nano Luciferase reporter was constructed by fusing the human full length 5′ untranslated region (5′-UTR) and a small portion of the coding sequence of the ATF4 gene upstream of the Nano Luciferase (NLuc) coding sequence lacking it's start codon. Specifically, nucleotides +1 through +364 (relative to the transcriptional start site) of ATF4 transcript variant 2 (NCBI NM_182810.2) flanked 5′ by EcoRI and 3′ by BamHI restriction enzyme sites were synthesized and cloned into the EcoRI/BamHI cloning sites of pLVX-EF1a-IRES-Puro lentivirus vector (Clontech). […]. H4 cells were selected with […] Puromycin, and clonal cell lines generated by limiting dilution. We utilized this cell line to generate an integrated stress response (ISR) assay to evaluate the activity of ISR pathway inhibitors via luminescence readout. The H4 ATF4-NLuc (clone 17) cell line is plated at a density of […] in 96-well or 384-well respectively in DMEM+10% fetal bovine serum. 24-hours later test compounds diluted in dimethyl sulfoxide (DMSO) are added for 30 minutes at 37 degree Celsius, followed by ISR pathway activation with 50 um sodium arsenite aqueous solution for 6 additional hours. Nano Glo luciferase reagent (N1150, Promega) is added according to manufacturer instructions and the luminescence signal (corresponding to the level of ATF4 translation and thus ISR pathway activation) is read with a standard plate reader with luminescence detection capabilities.
In the table below, activity of the tested compounds is provided in Table 3 as follows: +++=IC50<1 μM; ++=IC50 1-10 μM; +=IC50>10 μM.

Compound | IC50 [µM]
O=C(COC1CC(F)C1)NC12CC(NC(=O)c3ccc4cc(C(F)(F)F)ccc4n3)(C1)C2 (stereo not drawn) [Example 54, N-[1-[[2-(3-cis-fluorocyclobutoxy)acetyl]amino]-3-bicyclo[1.1.1]pentanyl]-6-(trifluoromethyl)quinoline-2-carboxamide] | < 1

same assay, conditions: Homo sapiens, 0.5 h

Compound | IC50 [µM]
O=C(COC1CC(OC(F)(F)F)C1)NC1CCN(c2nnc(-c3ccc(Cl)cc3)o2)CC1 (stereo not drawn) [Example 44, N-[1-[5-(4-chlorophenyl)-1,3,4-oxadiazol-2-yl]-4-piperidyl]-2-[3-cis-(trifluoromethoxy)cyclobutoxy]acetamide] | < 1
O=C(COc1ccc(Cl)c(F)c1)NC1C[C@H]2COC[C@@H](C1)N2c1cnn(C2CC(OC(F)(F)F)C2)c1 (stereo partly drawn) [Example 50, 2-(4-chloro-3-fluoro-phenoxy)-N-[(1S,5R,7r)-9-[1-[3-cis-(trifluoromethoxy)cyclobutyl]pyrazol-4-yl]-3-oxa-9-azabicyclo[3.3.1]nonan-7-yl]acetamide] | < 1
O=C(COc1ccc(Cl)cc1)N[C@H]1C[C@@H]2CN(C(=O)COC3CC(OC(F)(F)F)C3)C[C@@H]2C1 (some centres unmarked) [Example 59] | < 1
O=C(COc1ccc(Cl)cc1)NC1CC2CN(c3cnn([C@H]4C[C@@H](OC(F)(F)F)C4)c3)CC2C1 (stereo partly drawn) [Example 61, 2-(4-chlorophenoxy)-N-(2-(1-(3-cis-(trifluoromethoxy)cyclobutyl)-1H-pyrazol-4-yl)octahydrocyclopenta[c]pyrrol-5-yl)acetamide] | > 10

same assay, conditions: Homo sapiens, 0.5 h; H4 ATF4-NLuc (clone 17) cells; compounds 30 minutes at 37 degree Celsius, then 50 um sodium arsenite for 6 additional hours; luminescence readout; read-out: IC50

Compound | IC50 [µM]
O=C(COc1ccc(Cl)c(F)c1)NC12CC(NC(=O)COC3CC(OC(F)F)C3)(C1)C2 (stereo not drawn) [Example 34, 2-(4-chloro-3-fluoro-phenoxy)-N-[3-[[2-[3-cis-(difluoromethoxy)cyclobutoxy]acetyl]amino]-1-bicyclo[1.1.1]pentanyl]acetamide] | < 1
COC1CC(OCC(=O)NC23CC(NC(=O)COc4ccc(Cl)c(F)c4)(C2)C3)C1 (stereo not drawn) [Example 35, 2-(4-chloro-3-fluoro-phenoxy)-N-[3-[[2-(3-cis-methoxycyclobutoxy)acetyl]amino]-1-bicyclo[1.1.1]pentanyl]acetamide] | < 1
CC1CC(OCC(=O)NC23CC(NC(=O)COc4ccc(Cl)cc4)(C2)C3)C1 (stereo not drawn) [Example 36, 2-(4-chlorophenoxy)-N-[3-[[2-(3-cis-methylcyclobutoxy)acetyl]amino]-1-bicyclo[1.1.1]pentanyl]acetamide] | < 1
O=C(COc1ccc(Cl)c(F)c1)NC12CC(NC(=O)CO[C@H]3C[C@@H](OC(F)(F)F)C3)(C1)C2 [Example 37, 2-(4-chloro-3-fluoro-phenoxy)-N-[3-[[2-[3-cis-(trifluoromethoxy)cyclobutoxy]acetyl]amino]-1-bicyclo[1.1.1]pentanyl]acetamide] | < 1
O=C(COc1ccc(Cl)c(F)c1)NC12CC(NC(=O)COC3CC(C(F)F)C3)(C1)C2 (stereo not drawn) [Example 38, 2-(4-chloro-3-fluoro-phenoxy)-N-[3-[[2-[3-cis-(difluoromethyl)cyclobutoxy]acetyl]amino]-1-bicyclo[1.1.1]pentanyl]acetamide] | < 1
O=C(COC1CC(OC(F)(F)F)C1)NC12CC(NC(=O)COC3CC(OC(F)(F)F)C3)(C1)C2 (stereo not drawn) [Example 39, 2-[3-cis-(trifluoromethoxy)cyclobutoxy]-N-[3-[[2-[3-cis-(trifluoromethoxy)cyclobutoxy]acetyl]amino]-1-bicyclo[1.1.1]pentanyl]acetamide] | < 1
O=C(COc1ccc(Cl)c(F)c1)N[C@H]1C[C@@H]2CN(C(=O)COC3CCC3)C[C@@H]2C1 [Example 40, 2-(4-chloro-3-fluorophenoxy)-N-((3aR,5s,6aS)-2-(2-cyclobutoxyacetyl)octahydrocyclopenta[c]pyrrol-5-yl)acetamide] | < 1
O=C(COc1ccc(Cl)c(F)c1)N[C@@H]1C[C@@H]2CN(C(=O)COC3CCC3)C[C@@H]2C1 [Example 41, 2-(4-chloro-3-fluorophenoxy)-N-((3aR,5r,6aS)-2-(2-cyclobutoxyacetyl)octahydrocyclopenta[c]pyrrol-5-yl)acetamide] | < 1
O=C(COc1ccc(Cl)c(F)c1)N[C@@H]1C[C@@H]2[C@H](C1)[C@H]2c1nnc(C2CC(OC(F)(F)F)C2)o1 (stereo partly drawn) [Example 43, 2-(4-chloro-3-fluoro-phenoxy)-N-[(1R,5S)-6-[5-[3-(trifluoromethoxy)cyclobutyl]-1,3,4-oxadiazol-2-yl]-3-bicyclo[3.1.0]hexanyl]acetamide] | < 1
O=C(COc1ccc(Cl)c(F)c1)NC1CCN(c2cnn(C3CC(OC(F)(F)F)C3)c2)CC1 (stereo not drawn) [Example 46, 2-(4-chloro-3-fluorophenoxy)-N-(1-(1-(3-cis-(trifluoromethoxy)cyclobutyl)-1H-pyrazol-4-yl)piperidin-4-yl)acetamide] | < 1
O=C(COc1ccc(Cl)c(F)c1)NC1CCN(CCOC2CC(OC(F)(F)F)C2)CC1(F)F (stereo not drawn) [Example 47, 2-(4-chloro-3-fluoro-phenoxy)-N-[3,3-difluoro-1-[2-[3-cis-(trifluoromethoxy)cyclobutoxy]ethyl]-4-piperidyl]acetamide] | < 1
CO[C@H]1CN(CCOC2CC(OC(F)(F)F)C2)CCC1NC(=O)COc1ccc(Cl)c(F)c1 (stereo partly drawn) [Example 48, 2-(4-chloro-3-fluoro-phenoxy)-N-[cis-3-methoxy-1-[2-[3-cis-(trifluoromethoxy)cyclobutoxy]ethyl]-4-piperidyl]acetamide] | < 1
CO[C@@H]1CN(CCOC2CC(OC(F)(F)F)C2)CCC1NC(=O)COc1ccc(Cl)c(F)c1 (stereo partly drawn) [Example 49, 2-(4-chloro-3-fluoro-phenoxy)-N-[trans-3-methoxy-1-[2-[3-cis-(trifluoromethoxy)cyclobutoxy]ethyl]-4-piperidyl]acetamide] | < 1
O=C(COC1CC(OC(F)(F)F)C1)NC12CC(NC(=O)c3ccc4cc(C(F)(F)F)ccc4n3)(C1)C2 (stereo not drawn) [Example 51, N-[1-[[2-[3-cis-(trifluoromethoxy)cyclobutoxy]acetyl]amino]-3-bicyclo[1.1.1]pentanyl]-6-(trifluoromethyl)quinoline-2-carboxamide] | < 1
O=C(COC1CC(OC(F)(F)F)C1)NC12CC(NC(=O)c3nc4cc(Cl)ccc4s3)(C1)C2 (stereo not drawn) [Example 52, 5-chloro-N-[1-[[2-[3-cis-(trifluoromethoxy)cyclobutoxy]acetyl]amino]-3-bicyclo[1.1.1]pentanyl]-1,3-benzothiazole-2-carboxamide] | < 1
O=C(COC1CC(F)C1)NC12CC(NC(=O)c3ccc4cc(C(F)(F)F)ccc4n3)(C1)C2 (stereo not drawn) [Example 53, N-[1-[[2-(3-trans-fluorocyclobutoxy)acetyl]amino]-3-bicyclo[1.1.1]pentanyl]-6-(trifluoromethyl)quinoline-2-carboxamide] | < 1
O=C(COCC1CC1(F)F)NC12CC(NC(=O)c3ccc4cc(C(F)(F)F)ccc4n3)(C1)C2 (centres unmarked) [Example 55, N-[1-[[2-[(2,2-difluorocyclopropyl)methoxy]acetyl]amino]-3-bicyclo[1.1.1]pentanyl]-6-(trifluoromethyl)quinoline-2-carboxamide] | < 1
O=C(COc1ccc(Cl)c(F)c1)NC1CCN(CCOC2CC(OC(F)(F)F)C2)C(=O)C1 (stereo not drawn) [Example 56, 2-(4-chloro-3-fluorophenoxy)-N-(2-oxo-1-(2-(3-cis-(trifluoromethoxy)cyclobutoxy)ethyl)piperidin-4-yl)acetamide] | < 1
O=C(COc1ccc(Cl)c(F)c1)NC1CCN(CC(F)(F)COC2CC(OC(F)(F)F)C2)CC1 (stereo not drawn) [Example 57, 2-(4-chloro-3-fluorophenoxy)-N-(1-(2,2-difluoro-3-(3-cis-(trifluoromethoxy)cyclobutoxy)propyl)piperidin-4-yl)acetamide] | < 1
O=C(COc1ccc(Cl)c(F)c1)NCC1CCN(C(=O)COC2CC(OC(F)(F)F)C2)C1 (stereo not drawn) [Example 60, 2-(4-chloro-3-fluorophenoxy)-N-((1-(2-(3-cis-(trifluoromethoxy)cyclobutoxy)acetyl)pyrrolidin-3-yl)methyl)acetamide] | < 1
O=C(COc1ccc(Cl)c(F)c1)NC1CCN(C(=O)COC2CC(OC(F)(F)F)C2)CC1 (stereo not drawn) [Example 62, 2-(4-chloro-3-fluoro-phenoxy)-N-[1-[2-[3-cis-(trifluoromethoxy)cyclobutoxy]acetyl]-4-piperidyl]acetamide] | < 1
